Activity calls are given as the source filed them.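 How the source made its calls: active means AC50 no more than tenfold above the top dose tested, or full inhibition at every dose with a flat fit (cut at about 19 µM in these data); inconclusive means flat curve fit with inhibition between 30% and 70%, or poor fit; inactive means AC50 more than tenfold above the top dose tested.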
Tested on: HMLE_sh_eGFP viability, CellTiter-Glo luminescence, 72 h
Test: viability loss of HMLE_sh_eGFP cells – cell-based, luminescence, counter-screen for HMLE_sh_ECad selective toxicity project, dose response (AID 463074);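 further: counterscreen control line to flag general toxicity for the HMLE_sh_ECad screen; potency for loss of viability as luminescence drops below DMSO wells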

| Structure (SMILES) | AC50 |
| --- | --- |
| Cc1c(Cl)c([N+](=O)[O-])nn1Cc1ccc(C(=O)N/N=C\c2cc(Cl)ccc2O)o1 | 4.54 µM |
| Cc1ccccc1C(=O)N1CCN(c2ccc(NC(=O)c3ccc([N+](=O)[O-])o3)cc2)CC1 | 4.37 µM |
| O=C1/C(=C\c2cccc(O)c2O)SC(=S)N1Cc1ccccc1 | 4.85 µM |
| C=C(Br)Cn1c(CCCC)nc2ccccc21 | 0.645 µM |
| Cc1ccc(N2C(=O)NC(=O)/C(=C/C=C/c3ccco3)C2=O)cc1 | 3.29 µM |
| CCCOc1c(OC)cccc1C1CC(=O)Nc2cc3c(cc21)OCCO3 (stereo unspecified) | 2.95 µM |
| O=[N+]([O-])/C=C/c1cn(Cc2ccc(Cl)cc2)c2ccccc12 | 2.2 µM |
| O=C(Nc1cc(S(=O)(=O)Nc2ccc(Cl)cc2)ccc1N1CCCCC1)c1ccc(F)cc1 | 8.97 µM |
| COc1ccc(C)cc1NC(=O)c1ccccc1NS(=O)(=O)c1ccc(Cl)s1 | 7.89 µM |
| CCN1CCN(c2cc(C)c3cc(NC(=S)N4CCN(c5ccc(F)cc5)CC4)ccc3n2)CC1 | 4.67 µM |
| O=C(NCCc1ccccc1)c1cc(-c2ccccc2)c(N2CCOCC2)s1 | 3.61 µM |
| Cc1cc(C2(c3ccc(O)c(C)c3)C(=O)Nc3ccccc32)ccc1O | 7.1 µM |
| C/C(=N\Nc1ccccc1)c1c(O)n(Cc2ccccc2)c(=O)[nH]c1=O | 1.9 µM |
| COc1cc2sc(-c3ccccc3OC)c(-c3ccc(O)cc3)c2cc1OC | 5.22 µM |
| Cc1cccc(N=N/C(=C\O)C(=O)c2cccs2)c1 | 6.25 µM |
| O=C(O)c1cc(O)ccc1NC(=O)C(c1ccccc1)c1ccccc1 | > 19.5 µM (inactive) |
| CC1(C)CN(c2ccccc2)N(C(=O)c2ccc(C#N)cc2)C1=O | 4.31 µM |
| Cc1ccc(C(=O)Cn2nnc3c(sc4nc5c(c(-c6ccccc6)c43)CCC5)c2=O)cc1 | 0.687 µM |
| O=C(NC(=S)Nc1ccc(N2CCCCC2)c(Cl)c1)c1ccc2c(c1)OCCO2 | 3.58 µM |
| Cc1cc(N/N=C/c2ccccc2Cl)nc(NCc2ccccc2)n1 | 4.04 µM |
| CCOC(=O)c1ccc(Nc2cc(C)nc(-c3ccccc3)n2)cc1 | 3.71 µM |
| COc1ccc(N/N=C(/C(C)=O)N2CCCc3ccccc32)cc1 | 13.2 µM |
| O=[N+]([O-])c1cc(C(F)(F)F)ccc1NCCc1c[nH]c2ccccc12 | 4.16 µM |
| Cc1cc(Nc2ccccc2)nc(-c2ccccc2O)n1 | 7.92 µM |
| S=C1NC[C@H](Cc2ccccc2)N1CCCCC1CCCCC1 | 4.19 µM |
| Cc1nn2c(COc3ccc(NC(=O)c4ccccc4Cl)cc3)nnc2c2ccccc12 | 3.08 µM |

| Structure (SMILES) | AC50 |
| --- | --- |
| CC1(C)CC[C@]2(CO)CC[C@]3(C)C(=CCC4[C@@]5(C)CC[C@H](O)[C@@](C)(CO)C5CC[C@]43C)[C@@H]2C1 (stereo partly specified) | 3.97 µM |
| CC(C)(C)C1CCC(CN2C(Nc3ccccc3)=NC[C@@H]2Cc2ccccc2)CC1 (stereo partly specified) | 6.54 µM |
| Clc1ccc(CSc2nnnn2-c2ccc3c(c2)OCO3)c(Cl)c1 | 10.6 µM |
| CC(C)c1ccc(N2C(=O)NC(=O)/C(=C\C=C\c3ccco3)C2=O)cc1 | > 19.5 µM (inactive) |
| CS(=O)(=O)c1ccc(C(=O)OCC(=O)NC23CC4CC(CC(C4)C2)C3)cc1[N+](=O)[O-] | 2.39 µM |
| C=CCn1c(Sc2ncc([N+](=O)[O-])s2)n[nH]c1=O | 3.59 µM |
| c1cc(SC2CCCCC2)cc(-c2nc3cnccn3c2NC2CCCCC2)c1 | 1.78 µM |
| CSc1ccc(C2=CC(=O)C[C@H](c3ccc(Cl)cc3)C2)cc1 | 9.27 µM |
| CC1=CC(=O)C(C(C)C)=C/C1=C(\c1cc(C(C)C)c(OP(=O)(O)O)cc1C)c1ccccc1C(=O)O | 3.6 µM |
| CC(=O)Nc1ccc(-c2csc(NC(=O)CCCc3cccs3)n2)cc1 | 0.986 µM |
| COCCNC(=O)c1c[nH]c2ccc(S(=O)(=O)N3CCc4ccccc43)cc2c1=O | 5.53 µM |
| Cc1cccc(NC2=C/C(=N/S(=O)(=O)c3cccs3)c3ccccc3C2=O)c1 | 0.934 µM |
| CCOC(=O)N1CCN(S(=O)(=O)c2ccc(C(=O)NNc3nc4cc(C)cc(C)c4s3)cc2)CC1 | 3.7 µM |
| O=c1c2ccccc2nc(COc2ccccc2)n1/N=C/c1cc([N+](=O)[O-])ccc1O | > 19.5 µM (inactive) |
| O=C(NCCCSc1ccccc1)c1cc(Br)ccc1O | 5.85 µM |
| Cc1cccc(-n2ncc3c(N4CCCc5ccccc54)ncnc32)c1 | 7.68 µM |
| COc1ccc2sc(-c3ccc(SC)cc3)c(-c3ccc(O)cc3)c2c1 | 2.42 µM |
| O=C(Nc1ccc(Br)c(C(F)(F)F)c1)c1ccc(C(F)(F)F)cc1 | 3.03 µM |
| CCC(=O)NNc1ccc(Br)cc1 | 6.69 µM |
| CCCOc1ccc(/C=N/Nc2cccc([N+](=O)[O-])c2)c(O)c1 | 3.42 µM |
| Cc1ccc(-c2cc(C(=O)NCc3ccc4c(c3)OCO4)no2)cc1 | > 19.5 µM (inactive) |
| Cc1cccc(-n2cc(CN(C)Cc3nccn3C)c(-c3cccc(F)c3)n2)c1 | 15.5 µM |
| CCOC(=O)c1c(NC(=O)C(=O)N/N=C/c2ccccc2O)sc2c1CCCCC2 | 2.84 µM |
| O=C(c1ccc(C#CC2(O)CCCCC2)cc1)N1CCN(C(c2ccccc2)c2ccccc2)CC1 | 2.52 µM |
| Cc1cc2c(cc1C)CSC(c1c(O)ccc3ccccc13)SC2 | 3.12 µM |
| Cc1ccsc1/C=N/NC(=O)c1cc(-c2ccncc2)nc2ccccc12 | 0.257 µM |

| Structure (SMILES) | AC50 |
| --- | --- |
| COc1c(OC(C)=O)ccc(/C=C/c2ccc3cccc(OCc4ccccc4)c3n2)c1[N+](=O)[O-] | 3.37 µM |
| CC(=O)Oc1ccc(C(=O)Nc2ccc(C3(C#N)CCCC3)cc2)cc1 | 8.24 µM |
| CCCN(CCC)CCNC(=O)c1cc2c(-c3ccc(Cl)cc3)nn(C)c2s1 | 5.1 µM |
| S=C(Nc1ccccc1)Nc1nc2ccccc2n1CCOc1ccc(Br)cc1 | 14 µM |
| Cc1ccc(NC(=O)C(=Cc2ccc(C(=O)O)cc2)C(=O)Nc2ccc(C)cc2C)c(C)c1 | 3.16 µM |
| CCN(CC)CCNC(=O)c1[nH]c2ccc(OCc3ccccc3)cc2c1C | 1.81 µM |
| O=C(CCC1CCCC1)Nc1ccc(C(=O)NCc2cccnc2)cc1 | 1.04 µM |
| COc1ccc(C(=O)C2CCCN(C3CSCCSC3)C2)c(OC)c1 (stereo unspecified) | 4.74 µM |
| O=C(NCc1ccco1)c1cc(-c2ccc3c(c2)OCO3)on1 | 0.973 µM |
| C=CCn1c(SCCC)nc2sc3c(c2c1=O)CCc1ccccc1-3 | 2.26 µM |
| O=[N+]([O-])c1ccc(O)c(-c2nc(-c3ccccc3)c(-c3cccs3)[nH]2)c1 | 1.69 µM |
| OC(CNCc1ccco1)Cn1c2ccc(Br)cc2c2cc(Br)ccc21 (stereo unspecified) | 3.64 µM |
| O=C(CSCc1cccc(Br)c1)N/N=C/c1ccc2c(c1)OCO2 | 5.34 µM |
| COc1ccc(CN(CCC(c2ccccc2)c2ccc(OC(C)C)cc2)C(=O)CCl)cc1OC (stereo unspecified) | 1.67 µM |
| O=C(Nc1ccc(Br)cn1)c1cccc(-c2cc3ccccc3oc2=O)c1 | 12.3 µM |
| O=C(Cc1ccc(Cl)c(Cl)c1)Nc1ccc(SC(F)F)cc1 | 3.93 µM |
| O=C(Nc1ccc2c(c1)OCO2)c1ccc(COc2ccc3c(c2)CCC3)o1 | 6.25 µM |
| COc1cccc(Nc2nc(-c3ccccc3)nc3ccccc23)c1 | 7.67 µM |
| O=C1C=C(c2ccc(Cl)c(C(F)(F)F)c2)C[C@@H](c2ccc(Cl)cc2)C1 | 3.52 µM |
| Cc1ccn2c(NC3CCCCC3)c(-c3cccc(-c4cccc(Cl)c4)c3)nc2c1 | 6.68 µM |
| COc1cc(S(=O)(=O)N2CCCCCC2)c(OC)cc1Br | 2.55 µM |
| CC1(C)CC[C@@]2(C(=O)O)C(C1)C1=CCC3[C@@]4(C)CC[C@H](O)C(C)(C)C4CC[C@@]3(C)[C@]1(C)C[C@H]2O (stereo partly specified) | 7.84 µM |
| FC(F)(F)c1cc(-c2ccc(Cl)cc2)nc(NCc2cccnc2)n1 | 14 µM |
| COc1ccc(C)cc1N1C(=N)/C(=C2/Nc3ccccc3S2)C(c2ccccc2)C1=O (stereo unspecified) | 17.8 µM |

From PubChem BioAssay AID463074 (Broad Institute, 2010)
